Experimental data: patent US7179800B2 (priority 2002, dated 2007)
Read-outs that look alike come from different tables or passages of the source.

What was measured:
CB1 receptor [1] = molecular target: T1, CB1 receptor (Rattus norvegicus, UniProt P20272); assay: CB1 binding procedure: displacement of [3H]CP 55,940 from rat whole-brain P2 membranes; set-up: whole brain was homogenized and centrifuged; from tissue; host or cells: rat whole brain, P2 membrane fraction; settings: means ± SEM; [3H]CP 55,940, rat brain membranes; read-out: Ki (nM) CB1
Experimental: (§1) Male ICR mice (25–32 g), obtained from Harlan (Dublin, Va.), were housed in groups of five. All animals were kept in a temperature-controlled (20–22° C.) environment with a 12-hour light-dark cycle (lights on at 7 a.m.). Separate mice were used for testing each drug dose in the in vivo behavioral procedures. Brain tissue for binding studies was obtained from male Sprague-Dawley rats (150–200 g) purchased from Harlan Laboratories (Dublin, Va.).
The methods used for tissue preparation and binding have been described previously (Compton et al., 1993) and are similar to those described by Devane et al. (1988). All assays, as described briefly below, were performed in triplicate, and the results represent the combined data from three to six individual experiments.
Following decapitation and rapid removal of the brain, whole brain was homogenized and centrifuged. The resulting pellet was termed P1. The supernatant was saved and combined with the two subsequent supernatants obtained from washing of the P1 pellet. The combined supernatant fractions were centrifuged, resulting in the P2 pellet. After further incubation and centrifuging, this pellet was resuspended in assay buffer to a protein concentration of approximately 2 mg/ml. The membrane preparation was quickly frozen in a bath solution of dry ice and 2-methylbutane (Sigma Chemical Co., St. Louis, Mo.), then stored at −80° C. for no more than 2 weeks. Prior to performing a binding assay an aliquot of frozen membrane was rapidly thawed and protein values determined by the method of Bradford (1976).
Binding was initiated by the addition of 150 μg of P2 membrane to test tubes containing 1 nM of [^3H] CP 55,940 (79 Ci/mmol) and a sufficient quantity of buffer to bring the total incubation volume to 1 ml. Nonspecific binding was determined by the addition of 1 μM unlabeled CP 55,940. Following incubation at 30° C. for 1 hr, binding was terminated by addition of ice cold buffer and vacuum filtration through pretreated filters in a 12-well sampling manifold (Millipore, Bedford, Mass.). After washing, filters were placed into plastic scintillation vials (Packard, Downer Grove, Ill.) and shaken. The quantity of radioactivity present was determined by liquid scintillation spectrometry.
(§2) In addition, multiple linear regression was used to calculate the overall degree of relationship between CB1 binding affinity and potency in the mouse measures for all active cannabinoids. […] Ki values for CB1 and CB2 binding were obtained from Scatchard displacement analysis as determined via EBDA program of the KELL software package (Biosoft, Milltown, N.J.).

Male ICR mice [2] = assay: Change in rectal temperature (RT) in mice; assay type: in vivo, mouse; settings: for ED50: Mus musculus, iv
Experimental: as §1
(§3) Measurement of spontaneous activity in mice occurred in standard activity chambers interfaced with a Digiscan Animal Activity Monitor (Omnitech Electronics, Inc., Columbus, Ohio). A standard tail-flick apparatus and a digital thermometer (Fisher Scientific, Pittsburgh, Pa.) were used to measure antinociception and rectal temperature, respectively
(§4) Resorcinols were synthesized in our labs (Organix, Inc., Woburn, Mass.) according to the procedure specified below and were suspended in a vehicle of absolute ethanol, Emulphor-620 (Rhone-Poulenc, Inc., Princeton, N.J.), and saline in a ratio of 1:1:18. Drugs were administered to the mice intravenously (i.v.) in the tail vein at a volume of 0.1 ml/10 g.
(§5) Prior to testing in the behavioral procedures, mice were acclimated to the experimental setting (ambient temperature 22–24° C.) overnight. Pre-injection control values were determined for rectal temperature and tail-flick latency (in sec). […] Tail-flick latency was measured at 20 min post-injection. Maximum latency of 10 sec was used. Antinociception was calculated as percent of maximum possible effect {% MPE=[(test−control latency)/(10-control)]×100}. Control latencies typically ranged from 1.5 to 4.0 sec. At 30 min post-injection, rectal temperature was measured This value was expressed as the difference between control temperature (before injection) and temperatures following drug administration (° C.). Different mice (n=5–6 per dose) were tested for each dose of each compound. Each mouse was tested in each of the 3 procedures.
(§6) Based on data obtained from numerous previous studies with cannabinoids, maximal cannabinoid effects in each procedure were estimated as follows: 90% inhibition of spontaneous activity, 100% MPE in the tail flick procedure, and −6° C. change in rectal temperature. ED50's were defined as the dose at which half maximal effect occurred. For drugs that produced one or more cannabinoid effect, ED50's were calculated separately using least-squares linear regression on the linear part of the dose-effect curve for each measure in the mouse tetrad, plotted against log10 transformation of the dose. For the purposes of potency comparison, potencies were expressed as μmol/kg.

Male ICR mice [3] = assay: Tail-flick antinociception (TF, % MPE) in mice; assay type: in vivo, mouse; settings: for ED50: Mus musculus, iv
Experimental: as §1, §3, §4, §5, §6

Male ICR mice [4] = assay: Suppression of spontaneous activity (SA) in mice; assay type: in vivo, mouse; settings: for S.A ED50 / ED50 SA (suppression of spontaneous activity): mice, i.v.; for ED50 SA (suppression of spontaneous activity): 95% confidence limits in parentheses
Experimental: as §1, §3, §4, §5, §6

CB2 receptor = molecular target: T2, CB2 receptor (Homo sapiens, UniProt P34972); assay: CB2 binding procedure: displacement of [3H]CP-55,940 from membranes of transfected CHO cells; settings: for CB1/CB2 (ratio of Ki): CB1 Ki divided by CB2 Ki; for Ki: means ± SEM, [3H]CP-55,940, transfected CHO cell membranes, read-out: Ki (nM) CB2
T2 construct: expressed in transfected cells; host or cells: CHO cells, G418-selected transfected line
Experimental: Membranes for CB2 binding were obtained from CHO cells. The transfected cell line was maintained in Dublecco's Modified Eagle Medium (Gibco BRL, Grand Island, N.Y.) with 10% fetal clone II (HyClone Laboratories, Inc., Logan, Utah) plus 0.3 to 0.5 mg/ml G418 (to maintain selective pressure) under 5% CO2 at 37% C. Cells were harvested with 1 mM EDTA in phosphate-buffered saline and were centrifuged at 1000×g for 5 min at 4% C. The supernatant was saved and the P1 pellet was resuspended in centrifugation buffer. Homogenization and centrifugation were repeated twice and the combined supernatant fractions were centrifuged at 40,000×g for 30 min at 4% C. The P2 pellet was resuspended in centrifugation buffer 2 (Tris HCl, 50 mM; EDTA, 1 mM; and MgCl2, 3 mM, pH 7.4) to a protein concentration of approximately 2 mg/ml. Protein concentrations were determined by the method of Bradford (1976) using Bio-Rad Protein Assay (Bio-Rad, Richmond, Calif.) and BSA standards (fatty acid free, Sigma Chemical Co., St. Louis, Mo.). The membrane preparation was divided into amounts convenient for binding assays and frozen rapidly in dry ice and stored at −80% C.
Binding was initiated by the addition of 50 μg of quickly thawed P2 membranes to test tubes containing [^3H]CP-55,940 (final reaction concentration 0.5 nM), an appropriate concentration of unlabeled CP-55,940 or test drug, and sufficient quantity of assay buffer (50 mM Tris-HCl, 1 mM EDTA, 3 mM MgCl2, 5 mg/ml bovine serum albumin, pH 7.4) to bring the total incubation volume to 0.5 ml. Concentration of [^3H]CP-55,940 in saturation studies ranged from 50 to 10,000 pM. Nonspecific binding was determined by the addition of 1 μM unlabeled CP-55,940. CP-55,940 and all cannabinoid analogs were prepared by suspension in assay buffer from a 1 mg/ml ethanolic stock without evaporation of the ethanol (final concentration of no more than 0.4%). In competition studies, analog concentrations ranged from 0.1 nM to 10 μM. After incubation at 30% C for 1 hr, binding was terminated by the addition of 2 ml of ice-cold wash buffer (50 mM Tris-HCl and 1 mg/ml BSA) and vacuum filtration through pre-treated filters in a 12-well sampling manifold (Millipore, Bedford, Mass.). Reaction vessels were washed once with 2 ml of ice-cold wash buffer. Filters were placed into 7-ml plastic scintillation vials (RPI Corp., Mount Prospect, Ill.) with 4 ml of Budget-Solve (RPI Corp.). After shaking for 30 min, the radioactivity present was determined by liquid scintillation spectrometry. Three reaction vessels were used for each drug concentration in each assay. The results represent the combined data of three independent experiments. All assays were performed in siliconized test tubes, which were prepared by air drying (12 hr) inverted borosilicate tubes after two rinses with a 0.1% solution of AquaSil (Pierce, Rockford, Ill.). The GF/C glass-fiber filters (2.4 cm, Baxter, McGaw Park, Ill.) were pre-treated in a 0.1% solution of pH 7.4 polyethylenimine (Sigma Chemical Co.) for at least 6 hr.
as §2

CB1 receptor [5] = molecular target: T1, CB1 receptor; settings: values from Hanu et al 1999; ligand [3H]HU-243; cited from earlier work
[6] = mice, i.v., 95% confidence limits in parentheses

T1 sequence (P20272 whole entry): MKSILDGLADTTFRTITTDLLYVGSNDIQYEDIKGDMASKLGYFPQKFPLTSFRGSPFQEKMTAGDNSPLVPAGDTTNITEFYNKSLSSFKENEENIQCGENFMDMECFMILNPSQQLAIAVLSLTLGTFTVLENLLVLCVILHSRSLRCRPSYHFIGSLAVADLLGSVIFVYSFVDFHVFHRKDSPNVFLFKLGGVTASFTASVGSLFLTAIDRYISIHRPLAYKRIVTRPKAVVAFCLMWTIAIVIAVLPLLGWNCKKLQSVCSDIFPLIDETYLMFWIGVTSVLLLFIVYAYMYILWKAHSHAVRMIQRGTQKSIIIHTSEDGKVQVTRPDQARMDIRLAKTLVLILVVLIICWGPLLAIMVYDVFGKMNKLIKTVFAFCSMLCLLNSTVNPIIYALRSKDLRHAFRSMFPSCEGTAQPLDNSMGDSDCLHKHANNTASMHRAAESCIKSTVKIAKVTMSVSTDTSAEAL
T2 sequence (P34972 whole entry): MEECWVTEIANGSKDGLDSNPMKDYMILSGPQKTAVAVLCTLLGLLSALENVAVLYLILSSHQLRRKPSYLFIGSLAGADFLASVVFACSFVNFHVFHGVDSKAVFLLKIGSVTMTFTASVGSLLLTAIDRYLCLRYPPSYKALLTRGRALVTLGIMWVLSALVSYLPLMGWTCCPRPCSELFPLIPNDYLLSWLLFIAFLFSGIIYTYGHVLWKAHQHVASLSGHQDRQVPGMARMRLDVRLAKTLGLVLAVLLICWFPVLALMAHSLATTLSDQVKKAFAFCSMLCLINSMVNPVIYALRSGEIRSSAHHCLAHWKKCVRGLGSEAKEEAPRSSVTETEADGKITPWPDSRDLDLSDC

CCCCCCC(C)(C)c1cc(O)c(C2CCCC(C)C2)c(O)c1 (single isomer, unassigned) [O-1797A]
Ki (CB1 receptor [1]): 5 ± 0.6 nM
ED50 (Male ICR mice [2]; Table 6, mice, i.v., read-out: R.T. ED50): 0.252 mg/kg
ED50 (Male ICR mice [2]; mice, i.v., 95% confidence limits in parentheses, read-out: ED50 RT (rectal temperature)): 0.7 µmol/kg
ED50 (Male ICR mice [3]; Table 6, mice, i.v., read-out: T.F. ED50): 0.362 mg/kg
ED50 (Male ICR mice [3]; mice, i.v., 95% confidence limits in parentheses, read-out: ED50 TF (antinociceptive effect in tail flick assay)): 1.1 µmol/kg
S.A ED50 (Male ICR mice [4]; Table 6, listed as O-1297): 0.154 mg/kg
ED50 SA (suppression of spontaneous activity) (Male ICR mice [4]): 0.5(0.4–0.6) μmol/kg
CB1/CB2 (ratio of Ki) (CB2 receptor): 12
Ki (CB2 receptor): 0.4 ± 0.03 nM

CCCCCCC(C)(C)c1cc(O)c(C2CCCC(C)C2)c(O)c1 (single isomer, unassigned) [O-1798B, 2-(3-Methylcyclohexyl)-5-(1′,1′-dimethylheptyl)-resorcinolisomer B]
Ki (CB1 receptor [1]): 4 ± 0.6 nM
R.T. ED50 (Male ICR mice [2]; Table 6, mice, i.v.): 0.218 mg/kg
ED50 RT (rectal temperature) (Male ICR mice [2]; [6]): 0.6(0.5–0.7) μmol/kg
T.F. ED50 (Male ICR mice [3]; Table 6, mice, i.v.): 0.379 mg/kg
ED50 TF (antinociceptive effect in tail flick assay) (Male ICR mice [3]; [6]): 1.0(0.7–1.6) μmol/kg
S.A ED50 (Male ICR mice [4]; Table 6): 0.070 mg/kg
ED50 SA (suppression of spontaneous activity) (Male ICR mice [4]): 0.2(0.03–1.2) μmol/kg
CB1/CB2 (ratio of Ki) (CB2 receptor): 8
Ki (CB2 receptor): 0.5 ± 0.07 nM

CCCCCCC(C)(C)c1cc(OC)c(C2(O)CCCC(C)C2)c(OC)c1 (single isomer, unassigned; isomer 2) [O-1967B, 1-(4-(1,1-Dimethylheptyl-2,6-dimethoxy-phenyl)-3-methyl-cyclohexaol isomer 2]
Ki (CB1 receptor [1]): 1720 ± 105 nM
R.T. effect at dose (Male ICR mice [2]; Table 6, @ 30 (mg/kg)): 0 @ 30 °C
T.F. % effect at dose (Male ICR mice [3]; Table 6, @ 30 (mg/kg)): 8.2% @ 30
S.A % effect at dose (Male ICR mice [4]; Table 6, @ 30 (mg/kg)): 42.9 @ 30%
CB1/CB2 (ratio of Ki) (CB2 receptor): 15
Ki (CB2 receptor): 111 ± 8 nM

CCCCCCC(C)(C)c1cc(OC)c([C@@H]2C=C(CO)[C@@H]3C[C@H]2C3(C)C)c(OC)c1 [HU-308]
Ki (CB1 receptor [5]): > 10000 nM
